In patent publication US20110269778A1, “NOVEL DIPHENYL PURINE DERIVATIVES USEFUL AS MODULATORS OF NICOTINIC ACETYLCHOLINE RECEPTORS” (NEUROSEARCH A/S, priority 2008, published 2011):

Assays:
[1] = biological target: T1, wild-type nAChR α7 receptors (Homo sapiens, UniProt P36544); assay: Positive modulation of wild-type nAChR α7 receptors expressed in Xenopus laevis oocytes, two-electrode voltage clamp; type: cell-based; details: for Emax: maximal modulation of the control response to 100 μM acetylcholine, (test-control)/control×100%, from fitted concentration response curve, read-out: EC50 Imax; for EC50: positive modulation of current induced by 100 μM acetylcholine, oocytes clamped at −60 mV, test compound 0.01-31.6 μM applied 30 s before and during acetylcholine
T1 construct: expressed in transfected cells; host or cells: Xenopus laevis oocytes
Description: In this example the positive modulation of wild-type nAChR α7 receptors by the compounds of the invention was determined using nAChR α7 receptors heterologously expressed in Xenopus laevis oocytes.
The electrical current through the nAChR α7 channel was measured using conventional two-electrode voltage clamp and nAChR α7 currents were activated by applying pulses of agonist-containing solution onto the nAChR α7 expressing oocyte.
In brief, the oocytes were placed in a recording chambers and continuously super-fused with an Oocyte Ringer (OR) solution containing 90 mM NaCl, 2.5 mM KCl, 2.5 mM CaCl2, 1 mM MgCl2 and 5 mM HEPES (pH adjusted to 7.4). The oocytes were clamped at −60 mV and currents were induced by applying 20 s pulses of 100 μM acetylcholine dissolved in OR. The intervals between the acetylcholine applications were 5 minutes, during which the oocytes were washed with OR. The first three applications were control applications to insure a constant response level of 100 μM acetylcholine. For the subsequent test applications, increasing concentrations (0.01-31.6 μM) of the test compound were applied 30 s before and during the acetylcholine (100 μM) application, which caused a robust increase in the acetylcholine-induced current amplitude.
The positive modulation in the presence of Compound 4 was calculated as (test-control)/control×100% and the concentration response curve for this positive modulation was fitted to the sigmoidal logistic equation: I=Imax/(1+(EC50/[compound])^n), where Imax represents the maximal modulation of the control response, EC50 is the concentration causing a half maximal response, and n is the slope coefficient.

T1 sequence (P36544 23-502): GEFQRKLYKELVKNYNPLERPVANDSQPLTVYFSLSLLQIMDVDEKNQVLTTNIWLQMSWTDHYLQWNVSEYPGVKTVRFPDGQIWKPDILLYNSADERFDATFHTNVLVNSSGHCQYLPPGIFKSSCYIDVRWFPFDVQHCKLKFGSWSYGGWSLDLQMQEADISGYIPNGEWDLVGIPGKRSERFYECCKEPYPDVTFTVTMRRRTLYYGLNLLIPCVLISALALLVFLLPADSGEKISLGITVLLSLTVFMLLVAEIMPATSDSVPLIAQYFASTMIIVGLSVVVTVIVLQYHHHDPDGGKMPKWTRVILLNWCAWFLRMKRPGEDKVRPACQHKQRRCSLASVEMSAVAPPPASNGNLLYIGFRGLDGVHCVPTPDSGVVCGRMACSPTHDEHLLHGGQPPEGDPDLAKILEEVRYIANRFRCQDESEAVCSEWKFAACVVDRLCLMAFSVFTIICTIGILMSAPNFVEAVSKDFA

Compound | Emax [1] [%] | EC50 [1] [µM] | melting point [°C]
COc1ccc(-n2cnc3c(-c4ccc(C(F)(F)F)cc4F)ncnc32)cc1 [Compound 1, 6-(2-Fluoro-4-trifluoromethyl-phenyl)-9-(4-methoxy-phenyl)-9H-purine] | 45 | 1.2 | 181.4 to 182.8
Oc1ccc(-n2cnc3c(-c4ccc(C(F)(F)F)cc4F)ncnc32)cc1 [Compound 2, 4-[6-(2-Fluoro-4-trifluoromethyl-phenyl)-purin-9-yl]-phenol] | 120 | 5.8 | 205.2 to 206.4
NS(=O)(=O)c1ccc(-n2cnc3c(-c4ccc(C(F)(F)F)cc4F)ncnc32)cc1 [Compound 3, 4-[6-(2-Fluoro-4-trifluoromethyl-phenyl)-purin-9-yl]-benzenesulfonamide] | 44 | 9.5 | 243.8 to 245
COc1ccc(-n2c(=O)[nH]c3c(-c4ccc(C(F)(F)F)cc4F)ncnc32)cc1 [Compound 4, 6-(2-Fluoro-4-trifluoromethyl-phenyl)-9-(4-methoxy-phenyl)-7,9-dihydro-purin-8-one] | 1.6 | 3.2 | 295.9 to 297.2
O=c1[nH]c2c(-c3ccc(C(F)(F)F)cc3F)ncnc2n1-c1ccc(O)cc1 [Compound 5, 6-(2-Fluoro-4-trifluoromethyl-phenyl)-9-(4-hydroxy-phenyl)-7,9-dihydro-purin-8-one] | 82 | 33 | 276.4 to 277.9
COc1ccc(-n2nnc3c(-c4ccc(C(F)(F)F)cc4F)ncnc32)cc1 [Compound 6, 7-(2-Fluoro-4-trifluoromethyl-phenyl)-3-(4-methoxy-phenyl)-3H-[1,2,3]-triazolo[4,5-d]pyrimidine] | 7.3 |  | 175.4 to 176.8
Oc1ccc(-n2nnc3c(-c4ccc(C(F)(F)F)cc4F)ncnc32)cc1 [Compound 7, 4-[7-(2-Fluoro-4-trifluoromethyl-phenyl)-[1,2,3]triazolo[4,5-d]pyrimidin-3-yl]-phenol] | 28 | 5.9 | 210.2 to 211.8
